The numbers were not newly measured in patent US20050065732A1, “Matrix methods for quantitatively analyzing and assessing the properties of botanical samples” (priority 2001, published 2005), which cites them from elsewhere.

In data set [1] the test system is human umbilical vein endothelial cells (HUVECs).

In the case of `CC(C)=CCC[C@](C)(O[C@@H]1O[C@H](CO)[C@@H](O)[C@H](O)[C@H]1O)[C@H]1CC[C@]2(C)[C@@H]1[C@H](O)C[C@@H]1[C@@]3(C)CC[C@H](O)C(C)(C)[C@@H]3[C@@H](O[C@@H]3O[C@H](CO)[C@@H](O)[C@H](O)[C@H]3O[C@@H]3OC[C@@H](O)[C@H](O)[C@H]3O)C[C@]12C` [NR1, notoginsenoside R1], in the data set with HUVECs, the PAI-1 antigen synthesis entry is listed as “did not change”; the “TPA mRNA” value is given as “increased as much as twofold”; the TPA synthesis result was “dose- and time-dependent increase”; the “expression of PAI-1-specific mRNA” value was “not significantly affected”. In addition, the “urokinase-type plasminogen activator antigen synthesis” value with HUVECs is reported as “did not change”.

Regarding `CC(C)(O)[C@@H]1CC[C@](C)([C@H]2[C@@H](O)C[C@@]3(C)[C@@H]4C[C@H](O[C@@H]5O[C@H](CO)[C@@H](O)[C@H](O)[C@H]5O)[C@H]5C(C)(C)[C@@H](O[C@@H]6OC[C@@H](O)[C@H](O)[C@H]6O)CC[C@@]56C[C@@]46CC[C@]23C)O1` [astragaloside IV], in data set [1], the “plasminogen activator inhibitor type I (PAI-1) specific mRNA expression” value is “decreased” and the “tissue-type plasminogen activator (t-PA) specific mRNA” value is reported as “increased”.
